Measured values as given in patent US5622947A, “Benzoheterocyclic compounds and vasopressin antagonist and oxytocin antagonist compositions containing a benzoheterocyclic compound” (Otsuka Pharmaceutical Co., Ltd., priority 1992, dated 1997).

Legend:
[1] = Anti-antiduretic water diuretic activity in vivo; conditions: oral, male SD-rats, first 2 hours, vs control group; read-out: ED3 (oral dose required to increase the amount of urine excreted for the first 2 hours)
Protocol: Test-4: Anti-antiduretic water diuretic/activity in vivo
The test compound of the present invention was dissolved in polyethylene glycol 400 or water or suspended in 5% gum arabic aqueous solution, and the mixture was orally administered by force to male SD-rats (body weight: 300 to 400 g) under untreated and unrestrained. After administration the rats were kept in a metabolism cage and the amount of urine spontaneously excreted by the rats was measured at 2 hours' interval, during which the rats could freely be given feed and water.
In the cotrol group, a solvent was administered instead of a test compound solution (or suspension).
The test results are expressed as ED3, which is the oral dose of the test compound which is required to increase the amount of the urine excreted from the rat in the test compound-treated group for the first 2 hours by time based on the amount of urine excreted from the rat for the first 2 hours in the control group.

[2] = system: increase in the diastolic pressure caused by vasopressin; test: Vasopressin antagonistic activity in vivo; conditions: Rattus norvegicus; oral, awake male SD-rats, vasopressin 30 mU/kg i.v.; read-out: ID50 (oral dose required to achieve 50% inhibitory effect on increase in diastolic pressure)
Protocol: Test-3: Vasopressin antagonistic activity in vivo
In order to test the vasopressin antagonistic activity of the compound of the present invention when admistered orally to rats under awaking, the following experiment was conducted. Cannulas were inserted into the aorta abdominalis and the carotid arteries of male SD-rats (body weight: 300-450 g) under pentobarbital-anesthetization. A few days thereafter, vasopressin (30 mU/kg) was administered intravenously to the rats under awaking with measuring the blood pressure at the cannula inserted into the arorta abdominalis by a piezo-electric transducer. The test compound was dissolved in polyethylene glycol or water, or suspended in 5% gum arabic solution, and orally administered by force to the rats.
The increase in the diastolic pressure of the rat was periodically mesured at 30 minutes' interval after the administration of vasopressin for 8 hours. The rate of inhibitory effect (%) of the test compound on the increase in the diastolic pressure caused by vasopressin (30 mU/kg) was calculated based on the increase in the diastolic pressure when vasopressin (30 mU/kg) was intravenously administered without a test compound.
The test result is expressed as ID50 value, which is the oral dose of the test compound required to achieve the inhibitory effect in the rate of 50% and is shown in Table 158 as follows: […]

[3] = biological target: T1, V1 Recepter (rat liver plasma membrane preparations) (Rattus norvegicus, UniProt P30560); test: V1 Recepter binding assay; conditions: [3H]-Arg-vasopressin 2×10^-10 M, 37° C., 10 minutes, pH 8.0, rat liver plasma membrane
T1 construct: rat liver plasma membrane preparations; from tissue; host or cells: rat liver plasma membranes
T1 sequence (P30560 whole entry): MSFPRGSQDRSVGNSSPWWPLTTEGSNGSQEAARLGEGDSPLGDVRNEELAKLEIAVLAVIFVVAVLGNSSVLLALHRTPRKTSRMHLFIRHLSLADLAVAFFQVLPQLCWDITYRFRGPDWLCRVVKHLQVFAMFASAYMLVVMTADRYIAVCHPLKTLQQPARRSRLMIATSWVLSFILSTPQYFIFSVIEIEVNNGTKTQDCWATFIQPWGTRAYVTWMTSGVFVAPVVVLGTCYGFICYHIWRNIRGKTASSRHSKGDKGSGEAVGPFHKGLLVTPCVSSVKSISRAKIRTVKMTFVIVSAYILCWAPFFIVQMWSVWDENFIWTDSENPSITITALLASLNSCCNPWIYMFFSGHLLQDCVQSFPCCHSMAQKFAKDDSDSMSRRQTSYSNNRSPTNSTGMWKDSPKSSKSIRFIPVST
Summary of the method: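 Rat liver plasma membranes incubated with [3H]-Arg-vasopressin (2×10^-10 M) and compound (10^-8 to 10^-4 M) for 10 min at 37° C in Tris-HCl pH 8.0 with MgCl2, EDTA, BSA. Bound label separated by glass-fibre filtration, scintillation counted; nonspecific binding with 10^-6 M vasopressin; IC50 reported.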

[4] = biological target: T2, Oxytocin receptor (uterin muscle membrane preparation) (Rattus norvegicus, UniProt P70536); test: Oxytocin receptor binding assay; conditions: [3H]-oxytocin 10^-9 M, 25°, one hour, pH 8.0, uterin muscle membrane, DES-treated
T2 construct: was homogenized, which was used as a membrane; from tissue; host or cells: uterine muscle membranes from diethylstilbestrol-treated animals
T2 sequence (P70536 1-388): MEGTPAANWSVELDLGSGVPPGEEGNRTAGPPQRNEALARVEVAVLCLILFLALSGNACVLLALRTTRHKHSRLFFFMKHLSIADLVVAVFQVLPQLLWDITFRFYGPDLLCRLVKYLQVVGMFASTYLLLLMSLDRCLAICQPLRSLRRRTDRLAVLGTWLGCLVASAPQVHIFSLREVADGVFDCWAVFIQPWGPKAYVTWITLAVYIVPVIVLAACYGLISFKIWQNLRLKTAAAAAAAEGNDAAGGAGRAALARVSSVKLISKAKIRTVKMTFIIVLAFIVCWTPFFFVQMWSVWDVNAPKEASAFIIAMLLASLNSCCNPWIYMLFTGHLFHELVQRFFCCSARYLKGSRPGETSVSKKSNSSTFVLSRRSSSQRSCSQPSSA
Summary of the method: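 Rat uterine membranes (0.2 mg; DES-primed day before) incubated 1 h at 25° with [3H]-oxytocin (10^-9 M) and compound (10^-9 to 10^-5 M) in 100 mM Tris-HCl pH 8.0, 5 mM MgCl2, 1 mM EDTA, 0.1% BSA. Filter-bound radioactivity counted; nonspecific with 5×10^-6 M oxytocin; IC50 reported.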

[5] = biological target: T3, V2 Recepter (rat kidney plasma membrane preparations) (Rattus norvegicus, UniProt Q00788); test: V2 Recepter binding assay; conditions: [3H]-Arg-vasopressin 4×10^-10 M, 4° C., pH 8.0, rat kidney plasma membrane
T3 construct: rat kidney plasma membrane preparations; from tissue; host or cells: rat kidney plasma membranes
T3 sequence (Q00788 whole entry): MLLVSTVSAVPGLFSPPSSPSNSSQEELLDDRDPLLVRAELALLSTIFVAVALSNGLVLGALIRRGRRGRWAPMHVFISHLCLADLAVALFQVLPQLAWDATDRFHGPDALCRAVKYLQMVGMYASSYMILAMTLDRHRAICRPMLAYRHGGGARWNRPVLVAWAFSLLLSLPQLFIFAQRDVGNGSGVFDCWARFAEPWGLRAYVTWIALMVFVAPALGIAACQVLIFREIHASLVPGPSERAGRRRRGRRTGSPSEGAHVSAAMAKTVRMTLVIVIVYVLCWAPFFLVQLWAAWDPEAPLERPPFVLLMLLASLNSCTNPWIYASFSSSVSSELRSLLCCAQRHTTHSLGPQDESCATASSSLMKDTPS
Summary of the method: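 Rat kidney plasma membranes incubated with [^3H]-Arg-vasopressin (4×10^-10 M) and test compound (10^-10 to 10^-5 M) for 3 h at 4 °C in 100 mM Tris-HCl pH 8.0 with 5 mM MgCl2, 1 mM EDTA, 0.1% BSA. Bound label by filtration and scintillation counting; nonspecific binding with 10^-6 M vasopressin; IC50 reported.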

Row | SMILES | IC50 [3] [µM] | IC50 [4] [µM] | IC50 [5] [µM] | ED (3-fold) [1] [mg/kg] | ED50 [2] [mg/kg]
1 | COc1cc(NC(=O)c2ccccc2C)ccc1C(=O)N1CCCC(CC(=O)N2CCN(C)CC2)c2cc(Cl)ccc21 (centres unmarked) [Example 63, 5-[(4-Methyl-1-piperazinyl)carbonylmethyl]-7-chloro-1-[2-methoxy-4-(2-methylbenzoylamino)benzoyl]-2,3,4,5-tetrahydro-1H-benzoazepine] |  |  |  | 3.2 | 3.4
2 | COc1cc(NC(=O)c2ccccc2Cl)ccc1C(=O)N1CCCC(NC(=O)c2ccccc2Cl)c2cc(Cl)ccc21 (centres unmarked) [Example 159, 5-(2-Chlorobenzoylamino)-7-chloro-1-[2-methoxy-4-(2-chlorobenzoylamino)benzoyl]-2,3,4,5-tetrahydro-1H-benzoazepine] | 0.28 | 1.7 | 0.025 |  | 
3 | COc1cc(NC(=O)c2ccccc2Cl)ccc1C(=O)N1CCCC(OCCSc2nccc(C)n2)c2cc(Cl)ccc21 (centres unmarked) [Example 140] | 0.28 | 4.29 | 0.046 |  | 

More lines, main results first:

Row | IC50 [3] [µM] | IC50 [4] [µM] | IC50 [5] [µM] | SMILES | ED (3-fold) [1] [mg/kg] | ED50 [2] [mg/kg]
4 | 0.0055 | 0.07 | 0.003 | COc1cc(NC(=O)c2ccccc2Cl)ccc1C(=O)N1CCCC(CC(=O)NCCN2CCCCC2)c2cc(Cl)ccc21 (centres unmarked) [Example 156, 5-[2-(1-Piperidinyl)ethyl]aminocarbonylmethyl-7-chloro-1-[2-methoxy-4-(2-chlorobenzoylamino)benzoyl]-2,3,4,5-tetrahydro-1H-benzoazepine] |  | 
5 | 0.007 | 0.055 | 0.0019 | COc1cc(NC(=O)c2ccccc2Cl)ccc1C(=O)N1CCCC(CC(=O)NCCC2CCCN2C)c2cc(Cl)ccc21 (centres unmarked) [Example 155, 5-[2-(1-Methyl-2-pyrrolidinyl)ethyl]-aminocarbonylmethyl-7-chloro-1-[2-methoxy-4-(2-chlorobenzoylamino)benzoyl]-2,3,4,5-tetrahydro-1H-benzoazepine] |  | 
6 | 0.11 | 0.317 | 0.015 | COc1cc(NC(=O)c2ccccc2Cl)ccc1C(=O)N1CCCC(OCCn2ccnc2)c2cc(Cl)ccc21 (centres unmarked) [Example 171, 5-[2-(1-Imidazolyl)ethoxy]-7-chloro-1-[2-methoxy-4-(2-chlorobenzoylamino)benzoyl]-2,3,4,5-tetrahydro-1H-benzoazepine] |  | 
